From patent publication US9927437B2, “Treating neurodegenerative disease” (THE BRIGHAM AND WOMEN'S HOSPITAL, INC., priority 2013, dated 2018) come the findings set out here.

“Also recorded” adds a separate entry of the source.

One assay deals with inflammatory monocytes. The assay can be described thus: Recruitment of inflammatory monocytes to the CNS of EAE NOD mice (flow cytometry). Particulars: PDMP as in FIG. 1k, CD11b+Ly6C^high or CD11b+CD45^high. The assay is classed as in vivo, mouse. Background: Flow cytometry measures light scatter and fluorescence of single cells or particles in a stream.
The subject of another assay is C57BL/6 mice. The assay can be described thus: EAE in C57BL/6 mice. The assay is classed as in vivo. Particulars: 10 μg per mouse with MOG35-55 at induction and i.p. every 3 days.
The next assay relates to choroid plexus cells. The assay can be described thus: Transcriptional response of choroid plexus cells to LPS/IFNγ. It counts as cell-based, mouse. Particulars: LacCer 10 μM 1 h, LPS/IFNγ 6 h. How it is done: FIGS. 15a-b. […] Leptomeningeal phagocytes (a) and choroid plexus cells (b) were pre-treated for 1 h with LacCer (10 μM), or vehicle control (vehicle), followed by activation with LPS/IFNγ for 6 h, or left un-treated (control, Con). mRNA expression was determined by nCounter Nanostring analysis. Representative data of two independent experiments.
Mouse primary choroid plexus cells were prepared as described^55,56 with minor modifications. In brief, the choroid plexus was removed from 1- to 3-day-old neonatal mice, digested with 1% collagenase for 20 min at 37° C., and then dispersed into a single-cell level. The cell suspension was washed in culture medium for choroid plexus cells [Dulbecco's modified Eagle medium/Ham's F12 (Invitrogen) supplemented with 10% foetal calf serum (Sigma-Aldrich), 1 mM 1-glutamine, 1 mM sodium pyruvate, 100 U/ml penicillin, […] streptomycin, […] insulin, […] Ara-C) and cultured (2.5×10^5 cells/well) at 37° C., 5% CO2 in poly-D-lysine coated 24-well plates. After 24 h, the medium was changed, and the cells were either left untreated or treated as described.

With `CCCCCCCCCC(=O)N[C@H](CN1CCOCC1)[C@H](O)c1ccccc1` [PDMP, D-threo-1-phenyl-2-decanoylamino-3-morpholino-1-propanol], in the assay with inflammatory monocytes, the “frequency of inflammatory monocytes recruited to the CNS” value is reported as “significantly reduced” and the “total numbers of inflammatory monocytes recruited to the CNS” value is “significantly reduced”.

Turning to lactosylceramide [LacCer], the EAE clinical scores result with C57BL/6 mice was “significant worsening of EAE”. In addition, the “transcriptional response to activation of choroid plexus cells” value in the assay with choroid plexus cells is given as “did not affect the transcriptional response; also recorded: does not affect the transcriptional response”.
